In PubChem BioAssay (NCI):
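96-well plates; 48 h exposure; 5 concentrations. Endpoints by linear interpolation between flanking doses. Not reached: highest tested concentration assigned. Abbreviation: GI50, concentration required for 50% inhibition of growth. TGI: concentration producing complete growth inhibition.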

Key:
Experiment in all cases: NCI tumour cell line growth inhibition, 48 h
SF-268 CNS = system: SF-268 CNS
PC-3 prostate = system: PC-3 prostate
SK-MEL-2 melanoma = system: SK-MEL-2 melanoma
COLO 205 colon = system: COLO 205 colon
IGROV1 ovarian = system: IGROV1 ovarian
MOLT-4 leukemia = system: MOLT-4 leukemia
NCI-H23 lung = system: NCI-H23 lung
786-0 renal = system: 786-0 renal
RPMI-8226 leukemia = system: RPMI-8226 leukemia
OVCAR-8 ovarian = system: OVCAR-8 ovarian

SMILES	GI50 (SF-268 CNS) [µM]	TGI (SF-268 CNS) [µM]	GI50 (PC-3 prostate) [µM]	TGI (PC-3 prostate) [µM]	GI50 (SK-MEL-2 melanoma) [µM]	TGI (SK-MEL-2 melanoma) [µM]	GI50 (COLO 205 colon) [µM]	TGI (COLO 205 colon) [µM]	GI50 (IGROV1 ovarian) [µM]	TGI (IGROV1 ovarian) [µM]	GI50 (MOLT-4 leukemia) [µM]	TGI (MOLT-4 leukemia) [µM]	GI50 (NCI-H23 lung) [µM]	TGI (NCI-H23 lung) [µM]	GI50 (786-0 renal) [µM]	TGI (786-0 renal) [µM]	GI50 (RPMI-8226 leukemia) [µM]	TGI (RPMI-8226 leukemia) [µM]	GI50 (OVCAR-8 ovarian) [µM]	TGI (OVCAR-8 ovarian) [µM]
CCCCn1c(=O)[nH]c(N)c([C@@H]2c3c([nH]c(=O)n(CCCC)c3=O)Oc3ccc4ccccc4c32)c1=O	1.76	3.58	1.65	3.23	2.51	7.34	2	4.03	1.89	4.78	0.35	1.74	1.73	3.7	2.04	4.41	3.48	13.5	1.82	3.51
C=CCc1cccc(C=O)c1O	25.2	> 100	5.86	> 100	> 100	> 100	> 100	> 100	> 100	> 100	15.5	55.1	> 100	> 100	> 100	> 100	7.72	> 100	39.5	> 100
COC(=O)c1cc2ccc(O)c(O)c2cn1		30.8		56.4		34.3		33.1		33.2	4.6	> 100		32		19.7		> 100		28.6
CN1C(=O)C(c2c[nH]c3ccccc23)=C(c2c[nH]c3ccccc23)C1=O	7.27	> 25	4.46	> 25	5.26	13.4	4.77	12.4	5.47	> 22.8	7.83	> 25	6.61	> 25	9.85	> 25	6.84	25	7.67	> 25
O=C(N/N=C/c1ccc(Cl)cc1)c1ccc(NC(=O)c2ccccn2)cc1	16.1	95	17	> 100	17.7	> 100	> 100	> 100	38.1	> 100	> 100	> 100	26.3	> 100	20.7	59.6	> 100	> 100	35.7	> 100
COc1cc(/C=C/C(=O)c2cccc(-n3cc(-c4ccccc4)[nH]c3=O)c2)cc(OC)c1OC	1.92	5.74	3.26	20.7	2.06	4.98	1.51	2.83	2	4.7	1.8	> 100	1.43	3.29	1.38	2.97	0.626	> 100	1.62	16.4
CCOC(=O)c1noc2c1CCc1c-2cn(Cc2ccc(OC)cc2)c1-c1cc(OC)c(OC)c(OC)c1	8.07	> 100	2.9	> 100	4.29	> 100	1.77	7.82	2.45	> 100	2.7	> 100	3.04	> 100	3.65	> 100	2.85	> 100	3.04	> 100
NS(=O)(=O)c1ccc(N(/C=C/C(=O)C(F)(F)F)CC(=O)c2ccc(F)cc2)cc1	34.8	> 100	22.7	81.2	26.1	55.2	20.5	41.6	24.8	52.5	20	72.5	20.4	57.7	44.7	> 100	19.5	55.8	42.3	> 100
COc1ccc(-c2nc3sc(-c4cc(OC)c(OC)c(OC)c4)nn3c2/C=C2/C(=O)Nc3ccc(F)cc32)cc1	4.4	33.1	24.7	65.3	5.58	17.6	1.61	4.13	3.39	12.7	4.54	> 100	4.25	21.5	16	32.7	11.3	64.6	5.34	> 100
CC1CCCCCC(=O)c2c(O)cc(O)cc2CC(=O)O1 (stereo unspecified)		> 100		> 100		> 100		> 100		> 100		> 100		> 100		> 100		> 100		> 100
O=[N+]([O-])c1ccc(C2=NCCO2)cc1	> 100	> 100	> 100	> 100	> 100	> 100	> 100	> 100	> 100	> 100	> 100	> 100	> 100	> 100	> 100	> 100	> 100	> 100	> 100	> 100
CN1CCN(Cc2ccc(NC(=O)c3cncc(C#Cc4cnc(N)c5ncccc45)c3)cc2C(F)(F)F)CC1	0.511	2.95	0.584	16.9	0.142	0.468	0.231	1.66	0.175	2.58	0.239	5.16	0.284	6.26	1.12	2.52	0.401	8.2	0.58	3.51
CC(C)=CCC/C(C)=C/CC/C(C)=C/CSC[C@H](NC(=O)CCCCCN1CCN(C)CC1)C(=O)NC1CCCCCC1	2.02	4.03	1.89	4.31	2.24	4.42	1.85	3.63	2.36	5.31	2.69	7.48	3.01	8.78	1.77	3.19	1.98	4.67	3.33	12.2
O=S(=O)(NCCCNc1cc(-c2cn(-c3ccccc3)nc2-c2cccc(O)c2)ccn1)c1ccc(C(F)(F)F)cc1	1.85	4.95	1.93	4.57	1.88	3.63	1.78	3.54	3.24	9.55	1.83	5.36	1.65	3.94	1.57	3.7	1.66	4.82	2.47	7.66
O=C1NN2CC(c3ccccc3)=NN=C2c2ccccc21	26.8	82.3	12.6	33.8	52.8	> 100	20.3	41	42.8	> 100	11.1	> 100	17.7	38.7	26.2	72.3	19.4	41.7	29.1	74
C[C@@H]1CN2[C@H]3[C@@H]1CC[C@]31CCC(=O)O[C@]1(C)[C@H]1CC[C@H]3CCC=C3[C@@H]12	> 30	> 30	> 30	> 30	> 30	> 30	> 30	> 30	> 30	> 30	> 30	> 30	> 30	> 30	> 30	> 30	> 30	> 30	> 30	> 30
O=C(O)c1ccc(N(/C=C/C(=O)C(F)(F)F)Cc2ccc(Cl)cc2)cc1	> 100	> 100	37.9	> 100	19.1	53.3	36.7	> 100	20.3	48.9	34.8	> 100	24.7	64.8	31.4	> 100	29.8	> 100	26.1	78.4
Cn1cc(C2=C(c3ccsc3)C(=O)NC2=O)c2ccccc21	> 25	> 25	> 25	> 25	> 25	> 25	> 25	> 25	> 25	> 25	> 25	> 25	> 25	> 25	> 25	> 25	> 25	> 25	> 25	> 25
CC1=C(CCCOC(=O)[C@H](N)CC(C)C)C2=C(C)C3(CC3)[C@@](C)(O)C(=O)C2=C1	0.736	> 47.2	2.43	44.1	1.91	3.89	1.49	3.42	0.471	6.19	24.6	> 100	0.367	3.23	2.84	11.4	21.2	57.1	2.13	> 33.3
Cc1c(Cl)cccc1C(=O)Nc1nc2c(s1)CN(C(=O)Nc1cccc(C(F)(F)F)c1)CC2	0.467	> 50	0.143	> 50	0.283	> 50	0.174	4.36	0.29	> 50	0.291	> 50	0.234	> 50	0.254	> 25.3	0.202	> 39.2	0.277	> 50
CCN(Cc1ccc(OC)cc1)c1ccc(CO)c(Cl)c1	29.1	> 100	21.7	> 81.8	3.79	20.2	0.451	3.31	0.114	1.16	21.6	59.7	13.7	60	10.6	45.4	6.23	46.1	14	52.4
